From patent US20070049564A1 (Wyeth, priority 2005, published 2007)
≈ marks a conversion by molar mass, not a printed value. Like-named read-outs stand apart in the source and are kept apart here.

Key:
[1] = test system: E. coli GC 4559; experiment: MIC, broth microdilution; details: Escherichia coli, GC4559, E. coli GC 4559
Description: (§1) Antimicrobial susceptibility testing. The in vitro activities of the antibiotics are determined by the broth microdilution method as recommended by the National Committee for Clinical Laboratory Standards (NCCLS) (1). Mueller-Hinton II broth (MHBII)(BBL Cockeysville, Md.) is the medium employed in the testing procedures. Microtiter plates containing serial dilutions of each antimicrobial agent are inoculated with each organism to yield the appropriate density (10^5 CFU/ml) in a 100 μl final volume. The plates are incubated for 18-22 hours at 35° C. in ambient air.
(§2) Representative compounds were first incubated in mouse serum for an hour prior to the in vitro testing against a panel of selected gram-positive and gram-negative bacteria strains. All compounds were also pre-incubated in water for an hour prior to testing as control. Representative compounds of Formula I were incubated in human serum prior to MIC determination.

[2] = test system: E. faecalis GC 4555; experiment: MIC, broth microdilution; details: Enterococcus faecalis, GC4555, E. faecalis GC 4555
[3] = test system: S. pyogenes GC 4563; experiment: MIC, broth microdilution; details: Streptococcus pyogenes, GC4563, S. pyogenes GC 4563
[4] = test system: Staph. aureus Smith; experiment: In vivo activity (oral, iv; ED50) against Staph. aureus Smith in mice
Description: Representative examples of compounds of Formula I were tested for the oral efficacy using S. aureus Smith in mice.

[5] = test system: E. coli GC 2232; experiment: MIC, broth microdilution; details: Escherichia coli, GC2232, E. coli GC 2232
Description: as §1, §2

[6] = test system: Staph.; experiment: Range of MIC for Staph. strains, including MRSA; details: Staphylococcus aureus, MRSA
[7] = test system: E. coli GC 2236; experiment: MIC, broth microdilution; details: Escherichia coli, GC2236, E. coli GC 2236
[8] = test system: E. faecalis GC 2242; experiment: MIC, broth microdilution; details: Enterococcus faecalis, GC2242, E. faecalis GC 2242
[9] = test system: S. typhimurium GC 2172; experiment: MIC, broth microdilution; details: Salmonella enterica, TYPHIMURIUM, S. typhimurium GC 2172
[10] = test system: S. aureus GC 2216; experiment: MIC, broth microdilution; details: Staphylococcus aureus, GC2216, S. aureus GC 2216
[11] = test system: S. aureus GC 6466; experiment: MIC, broth microdilution; details: Staphylococcus aureus, GC6466, S. aureus GC 6466
[12] = test system: S. aureus GC 4536; experiment: MIC, broth microdilution; details: Staphylococcus aureus, GC4536, S. aureus GC 4536
[13] = test system: E. coli; experiment: Range of MIC for E. coli strains; details: Escherichia coli
[14] = test system: S. pneumoniae+ GC 4465; experiment: MIC, broth microdilution; details: Streptococcus pneumoniae, S. pneumoniae+ GC 4465
[15] = test system: E. coli GC 2234; experiment: MIC, broth microdilution; details: Escherichia coli, GC2234, E. coli GC 2234
[16] = test system: E. coli GC 2231; experiment: MIC, broth microdilution; details: Escherichia coli, GC2231, E. coli GC 2231
[17] = test system: E. coli GC 2235; experiment: MIC, broth microdilution; details: Escherichia coli, GC2235, E. coli GC 2235
[18] = test system: E. faecium GC 4556; experiment: MIC, broth microdilution; details: Enterococcus faecium, GC4556, E. faecium GC 4556
[19] = test system: S. agalactiae GC 4564; experiment: MIC, broth microdilution
[20] = test system: S. pneumoniae* GC 4465; experiment: MIC, broth microdilution; details: Streptococcus pneumoniae, S. pneumoniae* GC 4465
[21] = Staphylococcus aureus, in Mus musculus, po, read-out: ED50 Staph Smith SOD
[22] = iv, read-out: ED50 Staph Smith SIV
[23] = read-out: Range of MIC, Staph (Mouse Serum)
[24] = read-out: Range of MIC, Staph (Water)
[25] = 20 h, read-out: Range of MIC, E. coli (Mouse Serum)

## CCCCN(CC(=O)Nc1cc(N(C)C)c2c(c1O)C(=O)C1=C(O)[C@]3(O)C(=O)C(C(N)=O)=C(O)[C@@H](N(C)C)C3CC1C2)C(=O)OCOC(=O)c1ccc(OC)cc1 (stereo partly drawn) [Example 2, ({[(2-{[(7S,10aS)-9-(aminocarbonyl)-4,7-bis(dimethylamino)-1,8,10a,11-tetrahydroxy-10,12-dioxo-5,5a,6,6a,7,10,10a,12-octahydrotetracen-2-yl]amino}-2-oxoethyl)(butyl)amino]carbonyl}oxy)methyl 4-methoxybenzoate]
[1]; Mouse Serum pre-incubation
  MIC: 1 µg/mL (≈ 1.26 µM)
[1]; Water pre-incubation
  MIC: 64 µg/mL (≈ 80.6 µM)
[2]; Mouse Serum pre-incubation
  MIC: 2 µg/mL (≈ 2.52 µM)
[2]; Water pre-incubation
  MIC: 4 µg/mL (≈ 5.04 µM)
[3]; Mouse Serum pre-incubation
  MIC: 0.25 µg/mL (≈ 0.315 µM)
[3]; Water pre-incubation
  MIC: 0.25 µg/mL (≈ 0.315 µM)
[4]; [21]
  ED50: 13.3 mg/kg
[4]; [22]
  ED50: 0.71 mg/kg
[5]; Mouse Serum pre-incubation
  MIC: 2 µg/mL (≈ 2.52 µM)
[5]; Water pre-incubation
  MIC: 64 µg/mL (≈ 80.6 µM)
[6]; read-out: Minimum inhibitory concentration (MIC), Staph. (mouse serum)
  MIC: 1 to 8 µg/mL (≈ 1.26 to 10.1 µM)
[6]; read-out: Minimum inhibitory concentration (MIC), Staph. (water)
  MIC: 2 to 8 µg/mL (≈ 2.52 to 10.1 µM)
[6]; [23]
  MIC: 1 to 8 µg/mL (≈ 1.26 to 10.1 µM)
[6]; [24]
  MIC: 2 to 8 µg/mL (≈ 2.52 to 10.1 µM)
[7]; Mouse Serum pre-incubation
  MIC: 4 µg/mL (≈ 5.04 µM)
[7]; Water pre-incubation
  MIC: 32 µg/mL (≈ 40.3 µM)
[8]; Mouse Serum pre-incubation
  MIC: 4 µg/mL (≈ 5.04 µM)
[8]; Water pre-incubation
  MIC: 4 µg/mL (≈ 5.04 µM)
[9]; Mouse Serum pre-incubation
  MIC: > 64 µg/mL
[9]; Water pre-incubation
  MIC: > 64 µg/mL
[10]; Mouse Serum pre-incubation
  MIC: 2 µg/mL (≈ 2.52 µM)
[10]; Water pre-incubation
  MIC: 4 µg/mL (≈ 5.04 µM)
[11]; Mouse Serum pre-incubation
  MIC: 1 µg/mL (≈ 1.26 µM)
[11]; Water pre-incubation
  MIC: 2 µg/mL (≈ 2.52 µM)
[12]; Mouse Serum pre-incubation
  MIC: 2 µg/mL (≈ 2.52 µM)
[12]; Water pre-incubation
  MIC: 4 µg/mL (≈ 5.04 µM)
[13]; [25]
  MIC: 1 to 4 µg/mL (≈ 1.26 to 5.04 µM)
[13]; read-out: Minimum inhibitory concentration (MIC), E. coli (mouse serum)
  MIC: 1 to 4 µg/mL (≈ 1.26 to 5.04 µM)
[13]; read-out: Minimum inhibitory concentration (MIC), E. coli (water)
  MIC: 32 to 64 µg/mL (≈ 40.3 to 80.6 µM)
[13]; read-out: Range of MIC, E. coli (Water)
  MIC: 32 to 64 µg/mL (≈ 40.3 to 80.6 µM)
[14]; Mouse Serum pre-incubation
  MIC: 2 µg/mL (≈ 2.52 µM)
[14]; Water pre-incubation
  MIC: 4 µg/mL (≈ 5.04 µM)
[15]; Mouse Serum pre-incubation
  MIC: 1 µg/mL (≈ 1.26 µM)
[15]; Water pre-incubation
  MIC: 64 µg/mL (≈ 80.6 µM)
[16]; Mouse Serum pre-incubation
  MIC: 4 µg/mL (≈ 5.04 µM)
[16]; Water pre-incubation
  MIC: 64 µg/mL (≈ 80.6 µM)
[17]; Mouse Serum pre-incubation
  MIC: 2 µg/mL (≈ 2.52 µM)
[17]; Water pre-incubation
  MIC: 64 µg/mL (≈ 80.6 µM)
[18]; Mouse Serum pre-incubation
  MIC: 4 µg/mL (≈ 5.04 µM)
[18]; Water pre-incubation
  MIC: 8 µg/mL (≈ 10.1 µM)
[19]; Streptococcus agalactiae, GC4564, S. agalactiae GC 4564, Mouse Serum pre-incubation
  MIC: 2 µg/mL (≈ 2.52 µM)
[19]; Streptococcus agalactiae, GC4564, S. agalactiae GC 4564, Water pre-incubation
  MIC: 2 µg/mL (≈ 2.52 µM)
[20]; Mouse Serum pre-incubation
  MIC: 0.5 µg/mL (≈ 0.63 µM)
[20]; Water pre-incubation
  MIC: 0.25 µg/mL (≈ 0.315 µM)

## CCCN(CC(=O)Nc1cc(N(C)C)c2c(c1O)C(=O)C1=C(O)[C@]3(O)C(=O)C(C(N)=O)=C(O)[C@@H](N(C)C)[C@@H]3C[C@@H]1C2)C(=O)OCOC(=O)Cc1ccccc1 [Example 11, ({[(2-{[(5aR,6aS,7S,10aS)-9-(aminocarbonyl)-4,7-bis(dimethylamino)-1,8,10a,11′-tetrahydroxy-10,12-dioxo-5,5a,6,6a,7,10,10a,12-octahydrotetracen-2-yl]amino}-2-oxoethyl)(propyl)amino]carbonyl}oxy)methyl phenylacetate]
[1]; Mouse Serum pre-incubation
  MIC: 0.5 µg/mL (≈ 0.655 µM)
[1]; Water pre-incubation
  MIC: 32 µg/mL (≈ 41.9 µM)
[2]; Mouse Serum pre-incubation
  MIC: 0.5 µg/mL (≈ 0.655 µM)
[2]; Water pre-incubation
  MIC: 1 µg/mL (≈ 1.31 µM)
[3]; Mouse Serum pre-incubation
  MIC: < 0.06 µg/mL
[3]; Water pre-incubation
  MIC: < 0.06 µg/mL
[4]; [21]
  ED50: 30.3 mg/kg
[4]; [22]
  ED50: 0.59 mg/kg
[5]; Mouse Serum pre-incubation
  MIC: 1 µg/mL (≈ 1.31 µM)
[5]; Water pre-incubation
  MIC: 16 µg/mL (≈ 20.9 µM)
[6]; [23]
  MIC: 0.25 to 4 µg/mL (≈ 0.327 to 5.24 µM)
[6]; [24]
  MIC: 0.25 to 4 µg/mL (≈ 0.327 to 5.24 µM)
[6]; read-out: Range of MIC, Staph. (mouse serum)
  MIC: 0.25 to 4 µg/mL (≈ 0.327 to 5.24 µM)
[6]; read-out: Range of MIC, Staph. (water)
  MIC: 0.25 to 4 µg/mL (≈ 0.327 to 5.24 µM)
[7]; Mouse Serum pre-incubation
  MIC: 0.5 µg/mL (≈ 0.655 µM)
[7]; Water pre-incubation
  MIC: 8 µg/mL (≈ 10.5 µM)
[8]; Mouse Serum pre-incubation
  MIC: 0.25 µg/mL (≈ 0.327 µM)
[8]; Water pre-incubation
  MIC: 0.5 µg/mL (≈ 0.655 µM)
[9]; Mouse Serum pre-incubation
  MIC: 4 µg/mL (≈ 5.24 µM)
[9]; Water pre-incubation
  MIC: > 64 µg/mL
[10]; Mouse Serum pre-incubation
  MIC: 0.5 µg/mL (≈ 0.655 µM)
[10]; Water pre-incubation
  MIC: 0.5 µg/mL (≈ 0.655 µM)
[11]; Mouse Serum pre-incubation
  MIC: 0.25 µg/mL (≈ 0.327 µM)
[11]; Water pre-incubation
  MIC: 0.25 µg/mL (≈ 0.327 µM)
[12]; Mouse Serum pre-incubation
  MIC: 0.5 µg/mL (≈ 0.655 µM)
[12]; Water pre-incubation
  MIC: 0.5 µg/mL (≈ 0.655 µM)
[13]; [25]
  MIC: 0.25 to 2 µg/mL (≈ 0.327 to 2.62 µM)
[13]; read-out: Range of MIC, E. coli (mouse serum)
  MIC: 0.25 to 2 µg/mL (≈ 0.327 to 2.62 µM)
[14]; Mouse Serum pre-incubation
  MIC: 2 µg/mL (≈ 2.62 µM)
[14]; Water pre-incubation
  MIC: 2 µg/mL (≈ 2.62 µM)
[15]; Mouse Serum pre-incubation
  MIC: 0.5 µg/mL (≈ 0.655 µM)
[15]; Water pre-incubation
  MIC: 16 µg/mL (≈ 20.9 µM)
[16]; Mouse Serum pre-incubation
  MIC: 2 µg/mL (≈ 2.62 µM)
[16]; Water pre-incubation
  MIC: 64 µg/mL (≈ 83.8 µM)
[17]; Mouse Serum pre-incubation
  MIC: 0.25 µg/mL (≈ 0.327 µM)
[17]; Water pre-incubation
  MIC: 4 µg/mL (≈ 5.24 µM)
[18]; Mouse Serum pre-incubation
  MIC: 0.25 µg/mL (≈ 0.327 µM)
[18]; Water pre-incubation
  MIC: 0.5 µg/mL (≈ 0.655 µM)
[19]; S. agalactiae GC 4564, Water pre-incubation
  MIC: <0.06 UG/ML
[19]; Streptococcus agalactiae, GC4564
  MIC: < 0.06 µg/mL
[20]; Mouse Serum pre-incubation
  MIC: < 0.06 µg/mL
[20]; Water pre-incubation
  MIC: < 0.06 µg/mL
